Reference: patent US7169927B2, “Indole-amide derivatives and their use as glycogen phosphorylase inhibitors” (AstraZeneca AB, priority 2002, dated 2007)

What was measured:
[1] = test system: hepatocytes; conditions: cited from earlier work; for glucose output: glucagon stimulated
[2] = test system: db/db and ob/ob mice; conditions: cited from earlier work
[3] = test system: conscious dogs; conditions: following a glucagon challenge; cited from earlier work
[4] = molecular target: T1, Human recombinant liver glycogen phosphorylase a (hrl GPa) (Homo sapiens, UniProt P06737); assay: Glycogen phosphorylase a inhibition, glycogen degradation (multienzyme coupled assay, NADH fluorescence); type: biochemical; conditions: glycogen degradation direction
T1 sequence (P06737 1-847): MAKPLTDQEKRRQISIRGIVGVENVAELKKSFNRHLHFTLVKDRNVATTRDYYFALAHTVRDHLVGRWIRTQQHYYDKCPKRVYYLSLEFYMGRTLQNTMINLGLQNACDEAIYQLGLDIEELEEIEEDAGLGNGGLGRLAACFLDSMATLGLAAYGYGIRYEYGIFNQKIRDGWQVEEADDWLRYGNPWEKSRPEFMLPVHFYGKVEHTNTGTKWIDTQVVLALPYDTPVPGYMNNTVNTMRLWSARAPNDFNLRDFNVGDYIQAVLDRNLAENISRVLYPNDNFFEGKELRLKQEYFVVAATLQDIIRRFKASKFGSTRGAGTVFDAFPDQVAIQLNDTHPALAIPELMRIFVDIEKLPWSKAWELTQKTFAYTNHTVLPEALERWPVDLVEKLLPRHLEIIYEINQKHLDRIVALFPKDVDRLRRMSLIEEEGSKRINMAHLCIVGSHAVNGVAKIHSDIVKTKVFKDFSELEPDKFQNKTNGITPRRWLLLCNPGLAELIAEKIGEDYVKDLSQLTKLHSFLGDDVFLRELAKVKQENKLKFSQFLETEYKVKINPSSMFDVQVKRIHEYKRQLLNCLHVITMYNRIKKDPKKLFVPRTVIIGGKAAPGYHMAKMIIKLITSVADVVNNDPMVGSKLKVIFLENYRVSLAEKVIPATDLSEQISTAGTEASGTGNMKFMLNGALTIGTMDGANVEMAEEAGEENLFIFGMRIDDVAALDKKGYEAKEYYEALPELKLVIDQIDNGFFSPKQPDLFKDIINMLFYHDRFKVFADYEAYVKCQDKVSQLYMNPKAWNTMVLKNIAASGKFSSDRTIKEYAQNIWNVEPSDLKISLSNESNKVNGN
Description: The activity of the compounds is alternatively determined by measuring the inhibitory effect of the compounds on glycogen degradation, the production of glucose-1-phosphate from glycogen is monitored by the multienzyme coupled assay, as described in EP 0 846 464 A2, general method of Pesce et al (Pesce, M A, Bodourian, S H, Harris, R C, and Nicholson, J F (1977) Clinical Chemistry 23, […]). The reactions were in 384well microplate format in a volume of 50 μl. The change in fluorescence due to the conversion of the co-factor NAD to NADH is measured at 340 nm excitation, 465 nm emission in a Tecan Ultra Multifunctional Microplate Reader. The reaction is in 50 mM HEPES, 3.5 mM KH2PO4, 2.5 mM MgCl2, 2.5 mM ethylene glycol-bis(b-aminoethyl ether) N,N,N′N′tetraacetic acid, 100 mM KCl, 8 mM D-(+)-glucose pH7.2, containing 0.5 mM dithiothreitol, the assay buffer solution. Human recombinant liver glycogen phosphorylase a (hrl GPa) 20 nM is pre-incubated in assay buffer solution with 6.25 mM NAD, 1.25 mg type III glycogen at 1.25 mg ml^−1 the reagent buffer, for 30 minutes. […] The non-inhibited activity of GPa is measured in the presence of 10 μl 5% DMSO in assay buffer solution and maximum inhibition measured in the presence of 5 mgs ml^−1 N-ethylmaleimide. […] Relative Fluoresence Units (RFUs) are measured at 340 nm excitation, 465 nm emission. […]

Row | SMILES | glucagon stimulated glycogenolysis [1] | glucose output [1] | plasma glucose concentration [2] | arterial plasma glucose [3] | hepatic glucose output [3] | IC50 [4] [µM]
1 | CN(C)C(=O)[C@H](O)[C@H](Cc1ccccc1)NC(=O)c1cc2cc(Cl)ccc2[nH]1 [CP91149] | reduce | reduce | reduced, in a dose related manner |  |  | 
2 | CCN1C(C)=C(C(=O)OC(C)C)C(c2ccccc2Cl)C2=C1COC2=O (stereo not drawn) [Bay R 3401] |  |  |  | reduced significantly | reduced significantly | 
3 | O=C(N[C@@H](Cc1ccc(F)cc1)C(=O)N1CCC(O)CC1)c1cc2cc(Cl)ccc2[nH]1 [CP320626] | reduce | reduce | reduced, in a dose related manner |  |  | 
4 | Cc1csc(NC(=O)CN2C(=O)C(NC(=O)c3cc4cc(Cl)ccc4[nH]3)Cc3ccccc32)n1 (stereo not drawn) [Example 14, 5-chloro-N-(1-{2-[(4-methyl-1,3-thiazol-2-yl)amino]-2-oxoethyl}-2-oxo-1,2,3,4-tetrahydroquinolin-3-yl)-1H-indole-2-carboxamide] |  |  |  |  |  | 4.6
